molecular target: Serine/threonine-protein kinase 26 (Homo sapiens) (UniProt Q9P289)
Sequence (Q9P289 2-416 limits assumed): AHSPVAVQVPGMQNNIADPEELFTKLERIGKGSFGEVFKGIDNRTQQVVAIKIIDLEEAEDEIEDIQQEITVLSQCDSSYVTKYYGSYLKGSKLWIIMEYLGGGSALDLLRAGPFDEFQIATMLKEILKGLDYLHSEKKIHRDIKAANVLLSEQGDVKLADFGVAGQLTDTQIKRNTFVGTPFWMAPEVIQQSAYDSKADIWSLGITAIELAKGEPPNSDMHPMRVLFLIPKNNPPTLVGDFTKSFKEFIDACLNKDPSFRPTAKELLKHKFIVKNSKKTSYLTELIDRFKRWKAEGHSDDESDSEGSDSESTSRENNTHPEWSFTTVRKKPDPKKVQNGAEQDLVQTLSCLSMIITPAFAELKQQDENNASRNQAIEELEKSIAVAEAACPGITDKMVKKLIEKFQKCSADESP

| Structure (SMILES) | ΔTm [°C] |
| --- | --- |
| CC[C@H](CO)Nc1nc(NCc2ccccc2)c2ncn(C(C)C)c2n1 [SELICICLIB] | 0.6 |
| CC(C)c1nn(-c2c(Cl)cccc2Cl)c2nc(Cc3ccc(OCCO)cc3)[nH]c(=O)c12 | -0.3 |
| CN(c1cccnc1)c1cc2c(Nc3ccc(F)c(Cl)c3)c(C#N)cnc2cn1 | 1.3 |

molecular target: Calcium/calmodulin-dependent protein kinase kinase 2 (Homo sapiens, UniProt Q96RR4)
Sequence (Q96RR4 2-588 limits assumed): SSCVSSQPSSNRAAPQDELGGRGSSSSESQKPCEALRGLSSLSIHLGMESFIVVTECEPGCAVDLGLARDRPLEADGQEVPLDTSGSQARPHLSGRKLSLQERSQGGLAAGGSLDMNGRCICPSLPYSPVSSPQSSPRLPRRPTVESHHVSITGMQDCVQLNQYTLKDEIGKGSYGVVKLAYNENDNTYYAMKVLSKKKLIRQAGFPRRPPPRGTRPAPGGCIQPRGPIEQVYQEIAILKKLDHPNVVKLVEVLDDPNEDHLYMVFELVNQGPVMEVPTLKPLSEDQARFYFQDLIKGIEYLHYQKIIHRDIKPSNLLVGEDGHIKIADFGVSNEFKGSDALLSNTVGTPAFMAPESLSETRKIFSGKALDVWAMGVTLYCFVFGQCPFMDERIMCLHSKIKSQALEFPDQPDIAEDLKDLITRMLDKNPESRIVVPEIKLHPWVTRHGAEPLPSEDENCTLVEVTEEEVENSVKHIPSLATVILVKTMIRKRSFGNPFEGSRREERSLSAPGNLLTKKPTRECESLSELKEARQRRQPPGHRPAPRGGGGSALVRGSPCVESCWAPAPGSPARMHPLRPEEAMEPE

| Structure (SMILES) | ΔTm [°C] |
| --- | --- |
| CC[C@H](CO)Nc1nc(NCc2ccccc2)c2ncn(C(C)C)c2n1 [SELICICLIB] | 0.3 |
| CC(C)c1nn(-c2c(Cl)cccc2Cl)c2nc(Cc3ccc(OCCO)cc3)[nH]c(=O)c12 | 1.7 |
| CN(c1cccnc1)c1cc2c(Nc3ccc(F)c(Cl)c3)c(C#N)cnc2cn1 | 1.9 |

molecular target: Tyrosine-protein kinase JAK1 (Homo sapiens) (UniProt P23458)
Sequence (P23458 whole entry): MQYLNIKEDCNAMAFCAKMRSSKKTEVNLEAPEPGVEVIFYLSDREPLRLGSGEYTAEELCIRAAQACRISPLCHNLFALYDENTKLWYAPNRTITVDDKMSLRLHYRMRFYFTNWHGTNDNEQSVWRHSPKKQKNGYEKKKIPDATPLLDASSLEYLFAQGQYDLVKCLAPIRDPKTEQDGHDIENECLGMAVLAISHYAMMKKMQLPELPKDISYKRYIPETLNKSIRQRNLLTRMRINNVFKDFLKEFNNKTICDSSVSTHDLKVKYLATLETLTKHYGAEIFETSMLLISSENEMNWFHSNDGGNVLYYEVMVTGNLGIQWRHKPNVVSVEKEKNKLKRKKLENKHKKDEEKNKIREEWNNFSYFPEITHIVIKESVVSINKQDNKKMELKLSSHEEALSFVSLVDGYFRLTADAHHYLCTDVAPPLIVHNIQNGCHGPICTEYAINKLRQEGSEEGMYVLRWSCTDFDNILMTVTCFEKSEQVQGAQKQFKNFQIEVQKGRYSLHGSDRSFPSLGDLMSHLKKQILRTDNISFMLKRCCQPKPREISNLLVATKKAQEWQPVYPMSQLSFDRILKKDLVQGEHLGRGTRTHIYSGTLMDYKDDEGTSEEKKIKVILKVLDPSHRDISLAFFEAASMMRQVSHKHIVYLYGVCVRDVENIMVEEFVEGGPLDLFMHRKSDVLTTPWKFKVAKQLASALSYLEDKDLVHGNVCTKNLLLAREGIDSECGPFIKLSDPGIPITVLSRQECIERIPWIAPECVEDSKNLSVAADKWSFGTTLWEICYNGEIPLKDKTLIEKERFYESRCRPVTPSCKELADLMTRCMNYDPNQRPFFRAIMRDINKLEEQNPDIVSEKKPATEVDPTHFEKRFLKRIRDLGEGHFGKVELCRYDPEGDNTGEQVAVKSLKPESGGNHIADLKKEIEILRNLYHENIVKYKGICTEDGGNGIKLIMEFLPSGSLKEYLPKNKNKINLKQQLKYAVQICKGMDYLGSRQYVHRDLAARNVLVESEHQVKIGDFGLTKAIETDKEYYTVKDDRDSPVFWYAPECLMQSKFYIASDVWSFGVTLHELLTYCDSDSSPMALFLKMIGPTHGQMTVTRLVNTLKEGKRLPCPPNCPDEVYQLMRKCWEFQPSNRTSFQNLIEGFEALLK

| Structure (SMILES) | ΔTm [°C] |
| --- | --- |
| CC[C@H](CO)Nc1nc(NCc2ccccc2)c2ncn(C(C)C)c2n1 [SELICICLIB] | 0.1 |
| CC(C)c1nn(-c2c(Cl)cccc2Cl)c2nc(Cc3ccc(OCCO)cc3)[nH]c(=O)c12 | 0.2 |
| CN(c1cccnc1)c1cc2c(Nc3ccc(F)c(Cl)c3)c(C#N)cnc2cn1 | 0.4 |

molecular target: T1, Serine/threonine-protein kinase 17A (Homo sapiens) (UniProt Q9UEE5)
T1 sequence (whole entry): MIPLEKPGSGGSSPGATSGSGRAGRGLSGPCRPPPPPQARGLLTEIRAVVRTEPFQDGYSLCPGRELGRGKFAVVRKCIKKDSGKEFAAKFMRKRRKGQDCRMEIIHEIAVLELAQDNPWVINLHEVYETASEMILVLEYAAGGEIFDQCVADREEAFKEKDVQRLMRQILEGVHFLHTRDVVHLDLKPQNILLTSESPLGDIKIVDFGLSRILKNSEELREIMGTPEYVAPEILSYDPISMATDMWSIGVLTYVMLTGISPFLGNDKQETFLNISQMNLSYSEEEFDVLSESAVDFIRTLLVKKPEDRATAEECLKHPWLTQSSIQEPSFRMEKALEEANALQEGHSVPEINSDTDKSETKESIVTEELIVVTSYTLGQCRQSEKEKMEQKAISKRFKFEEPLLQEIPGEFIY

| Structure (SMILES) | ΔTm [°C] |
| --- | --- |
| CC[C@H](CO)Nc1nc(NCc2ccccc2)c2ncn(C(C)C)c2n1 [SELICICLIB] | -0.5 |
| CC(C)c1nn(-c2c(Cl)cccc2Cl)c2nc(Cc3ccc(OCCO)cc3)[nH]c(=O)c12 | 0.1 |
| CN(c1cccnc1)c1cc2c(Nc3ccc(F)c(Cl)c3)c(C#N)cnc2cn1 | 4.7 |

molecular target: cAMP-dependent protein kinase catalytic subunit alpha (Homo sapiens) (UniProt P17612)

| Structure (SMILES) | ΔTm [°C] |
| --- | --- |
| CC[C@H](CO)Nc1nc(NCc2ccccc2)c2ncn(C(C)C)c2n1 [SELICICLIB] | 0.2 |
| CC(C)c1nn(-c2c(Cl)cccc2Cl)c2nc(Cc3ccc(OCCO)cc3)[nH]c(=O)c12 | -0.1 |
| CN(c1cccnc1)c1cc2c(Nc3ccc(F)c(Cl)c3)c(C#N)cnc2cn1 | 2.2 |

molecular target: Serine/threonine-protein kinase pim-2 (Homo sapiens, UniProt Q9P1W9)
Sequence (Q9P1W9 whole entry, looked up): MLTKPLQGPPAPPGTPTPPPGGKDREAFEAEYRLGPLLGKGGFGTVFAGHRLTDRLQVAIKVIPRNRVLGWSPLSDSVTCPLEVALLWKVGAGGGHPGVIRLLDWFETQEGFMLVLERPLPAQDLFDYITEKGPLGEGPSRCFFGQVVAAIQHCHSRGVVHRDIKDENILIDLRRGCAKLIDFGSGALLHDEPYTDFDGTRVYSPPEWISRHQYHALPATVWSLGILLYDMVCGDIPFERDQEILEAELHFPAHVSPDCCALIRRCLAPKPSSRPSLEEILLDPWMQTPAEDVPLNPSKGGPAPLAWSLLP

| Structure (SMILES) | ΔTm [°C] |
| --- | --- |
| CC[C@H](CO)Nc1nc(NCc2ccccc2)c2ncn(C(C)C)c2n1 [SELICICLIB] | 0.3 |
| CC(C)c1nn(-c2c(Cl)cccc2Cl)c2nc(Cc3ccc(OCCO)cc3)[nH]c(=O)c12 | -0.1 |
| CN(c1cccnc1)c1cc2c(Nc3ccc(F)c(Cl)c3)c(C#N)cnc2cn1 | 10.7 |

molecular target: Cyclin-dependent kinase 16 (Homo sapiens) (UniProt Q00536)

| Structure (SMILES) | ΔTm [°C] |
| --- | --- |
| CC(C)c1nn(-c2c(Cl)cccc2Cl)c2nc(Cc3ccc(OCCO)cc3)[nH]c(=O)c12 | -0.6 |
| CN(c1cccnc1)c1cc2c(Nc3ccc(F)c(Cl)c3)c(C#N)cnc2cn1 | 0.1 |

molecular target: Serine/threonine-protein kinase 10 (Homo sapiens) (UniProt O94804)

| Structure (SMILES) | ΔTm [°C] |
| --- | --- |
| CC(C)c1nn(-c2c(Cl)cccc2Cl)c2nc(Cc3ccc(OCCO)cc3)[nH]c(=O)c12 | 0.6 |
| CN(c1cccnc1)c1cc2c(Nc3ccc(F)c(Cl)c3)c(C#N)cnc2cn1 | 2.8 |

molecular target: 5'-AMP-activated protein kinase catalytic subunit alpha-2 (Homo sapiens) (UniProt P54646)
Sequence (P54646 whole entry, looked up): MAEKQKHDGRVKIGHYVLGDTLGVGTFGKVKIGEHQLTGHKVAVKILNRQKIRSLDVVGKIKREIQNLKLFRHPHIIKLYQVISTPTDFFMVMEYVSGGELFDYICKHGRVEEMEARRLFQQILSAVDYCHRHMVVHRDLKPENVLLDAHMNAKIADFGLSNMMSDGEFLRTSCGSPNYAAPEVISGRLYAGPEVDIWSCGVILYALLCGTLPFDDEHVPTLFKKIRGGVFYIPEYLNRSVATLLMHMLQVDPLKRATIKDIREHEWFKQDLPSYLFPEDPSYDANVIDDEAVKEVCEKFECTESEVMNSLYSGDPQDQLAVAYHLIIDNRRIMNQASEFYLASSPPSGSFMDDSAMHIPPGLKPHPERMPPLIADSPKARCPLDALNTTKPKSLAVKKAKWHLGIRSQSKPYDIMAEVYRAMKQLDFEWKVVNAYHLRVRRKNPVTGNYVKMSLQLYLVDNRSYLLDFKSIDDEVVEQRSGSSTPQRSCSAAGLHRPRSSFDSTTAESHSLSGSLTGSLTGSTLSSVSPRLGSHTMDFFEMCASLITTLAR

| Structure (SMILES) | ΔTm [°C] |
| --- | --- |
| CC[C@H](CO)Nc1nc(NCc2ccccc2)c2ncn(C(C)C)c2n1 [SELICICLIB] | 0.4 |
| CC(C)c1nn(-c2c(Cl)cccc2Cl)c2nc(Cc3ccc(OCCO)cc3)[nH]c(=O)c12 | 1 |
| CN(c1cccnc1)c1cc2c(Nc3ccc(F)c(Cl)c3)c(C#N)cnc2cn1 | 4.8 |

molecular target: Casein kinase I isoform gamma-3 (Homo sapiens) (UniProt Q9Y6M4)
Sequence (Q9Y6M4 whole entry, looked up, canonical isoform): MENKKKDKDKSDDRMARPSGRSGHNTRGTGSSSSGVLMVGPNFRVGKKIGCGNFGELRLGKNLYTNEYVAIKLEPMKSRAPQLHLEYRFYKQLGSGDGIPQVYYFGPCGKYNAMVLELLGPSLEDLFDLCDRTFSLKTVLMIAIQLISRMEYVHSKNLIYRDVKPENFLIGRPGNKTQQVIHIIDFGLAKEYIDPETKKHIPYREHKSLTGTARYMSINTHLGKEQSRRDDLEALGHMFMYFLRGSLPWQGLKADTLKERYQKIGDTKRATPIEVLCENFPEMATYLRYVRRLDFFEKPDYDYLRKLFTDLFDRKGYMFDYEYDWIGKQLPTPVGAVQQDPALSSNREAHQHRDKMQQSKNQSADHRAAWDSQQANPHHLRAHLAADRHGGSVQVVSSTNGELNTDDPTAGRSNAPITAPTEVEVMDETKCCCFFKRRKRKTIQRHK

| Structure (SMILES) | ΔTm [°C] |
| --- | --- |
| CC(C)c1nn(-c2c(Cl)cccc2Cl)c2nc(Cc3ccc(OCCO)cc3)[nH]c(=O)c12 | 1.3 |
| CN(c1cccnc1)c1cc2c(Nc3ccc(F)c(Cl)c3)c(C#N)cnc2cn1 | 3.7 |

molecular target: Serine/threonine-protein kinase PAK 6 (Homo sapiens) (UniProt Q9NQU5)
Sequence (Q9NQU5 whole entry, looked up): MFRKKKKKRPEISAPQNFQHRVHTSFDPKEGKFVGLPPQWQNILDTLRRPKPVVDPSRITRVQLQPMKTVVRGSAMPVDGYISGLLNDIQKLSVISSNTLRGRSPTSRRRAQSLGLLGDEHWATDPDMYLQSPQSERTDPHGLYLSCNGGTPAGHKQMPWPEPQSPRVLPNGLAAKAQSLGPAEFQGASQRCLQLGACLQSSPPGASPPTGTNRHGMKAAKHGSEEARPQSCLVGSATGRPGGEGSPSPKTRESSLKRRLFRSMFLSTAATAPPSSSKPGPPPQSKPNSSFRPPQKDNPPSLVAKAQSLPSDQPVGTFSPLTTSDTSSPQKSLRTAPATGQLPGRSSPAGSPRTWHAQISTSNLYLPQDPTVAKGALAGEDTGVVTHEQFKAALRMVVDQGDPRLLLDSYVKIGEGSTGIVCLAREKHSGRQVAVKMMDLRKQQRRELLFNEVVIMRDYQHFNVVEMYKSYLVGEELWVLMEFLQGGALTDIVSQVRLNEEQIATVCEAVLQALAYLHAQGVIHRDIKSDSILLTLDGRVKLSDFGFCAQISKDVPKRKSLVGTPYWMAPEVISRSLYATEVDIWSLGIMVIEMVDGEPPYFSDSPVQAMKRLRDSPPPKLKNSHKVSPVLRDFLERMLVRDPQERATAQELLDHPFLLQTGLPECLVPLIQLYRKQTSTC

| Structure (SMILES) | ΔTm [°C] |
| --- | --- |
| CC[C@H](CO)Nc1nc(NCc2ccccc2)c2ncn(C(C)C)c2n1 [SELICICLIB] | 0.5 |
| CC(C)c1nn(-c2c(Cl)cccc2Cl)c2nc(Cc3ccc(OCCO)cc3)[nH]c(=O)c12 | -0.1 |
| CN(c1cccnc1)c1cc2c(Nc3ccc(F)c(Cl)c3)c(C#N)cnc2cn1 | -0.2 |

molecular target: T2, Serine/threonine-protein kinase VRK3 (Homo sapiens) (UniProt Q8IV63)
T2 sequence (whole entry): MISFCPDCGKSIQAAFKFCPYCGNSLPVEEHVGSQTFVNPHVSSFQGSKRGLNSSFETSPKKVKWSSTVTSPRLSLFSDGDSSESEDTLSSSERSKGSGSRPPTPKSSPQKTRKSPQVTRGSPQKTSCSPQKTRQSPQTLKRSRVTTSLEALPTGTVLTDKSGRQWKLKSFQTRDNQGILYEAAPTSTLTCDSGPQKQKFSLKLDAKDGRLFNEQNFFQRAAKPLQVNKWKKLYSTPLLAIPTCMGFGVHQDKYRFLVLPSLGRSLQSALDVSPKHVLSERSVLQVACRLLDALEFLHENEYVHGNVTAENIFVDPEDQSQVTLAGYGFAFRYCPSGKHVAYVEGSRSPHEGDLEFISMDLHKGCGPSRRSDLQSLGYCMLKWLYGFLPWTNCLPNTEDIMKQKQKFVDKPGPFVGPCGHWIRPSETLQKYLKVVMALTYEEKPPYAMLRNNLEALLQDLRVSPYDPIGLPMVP

| Structure (SMILES) | ΔTm [°C] |
| --- | --- |
| CC[C@H](CO)Nc1nc(NCc2ccccc2)c2ncn(C(C)C)c2n1 [SELICICLIB] | 0.6 |

molecular target: Serine/threonine-protein kinase Nek6 (Homo sapiens) (UniProt Q9HC98)
Sequence (Q9HC98 whole entry): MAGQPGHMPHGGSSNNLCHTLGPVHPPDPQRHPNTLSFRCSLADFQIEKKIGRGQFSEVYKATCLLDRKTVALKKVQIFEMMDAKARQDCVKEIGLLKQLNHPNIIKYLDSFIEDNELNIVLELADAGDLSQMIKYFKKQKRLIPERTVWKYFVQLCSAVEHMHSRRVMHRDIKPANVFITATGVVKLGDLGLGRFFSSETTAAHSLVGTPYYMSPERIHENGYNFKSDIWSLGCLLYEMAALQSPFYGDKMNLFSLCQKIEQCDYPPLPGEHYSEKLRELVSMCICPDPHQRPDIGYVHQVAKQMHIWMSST

| Structure (SMILES) | ΔTm [°C] |
| --- | --- |
| CC(C)c1nn(-c2c(Cl)cccc2Cl)c2nc(Cc3ccc(OCCO)cc3)[nH]c(=O)c12 | 2 |
| CN(c1cccnc1)c1cc2c(Nc3ccc(F)c(Cl)c3)c(C#N)cnc2cn1 | 1.5 |

molecular target: T3, Mitogen-activated protein kinase kinase kinase 5 (Homo sapiens) (UniProt Q99683)
T3 sequence (whole entry): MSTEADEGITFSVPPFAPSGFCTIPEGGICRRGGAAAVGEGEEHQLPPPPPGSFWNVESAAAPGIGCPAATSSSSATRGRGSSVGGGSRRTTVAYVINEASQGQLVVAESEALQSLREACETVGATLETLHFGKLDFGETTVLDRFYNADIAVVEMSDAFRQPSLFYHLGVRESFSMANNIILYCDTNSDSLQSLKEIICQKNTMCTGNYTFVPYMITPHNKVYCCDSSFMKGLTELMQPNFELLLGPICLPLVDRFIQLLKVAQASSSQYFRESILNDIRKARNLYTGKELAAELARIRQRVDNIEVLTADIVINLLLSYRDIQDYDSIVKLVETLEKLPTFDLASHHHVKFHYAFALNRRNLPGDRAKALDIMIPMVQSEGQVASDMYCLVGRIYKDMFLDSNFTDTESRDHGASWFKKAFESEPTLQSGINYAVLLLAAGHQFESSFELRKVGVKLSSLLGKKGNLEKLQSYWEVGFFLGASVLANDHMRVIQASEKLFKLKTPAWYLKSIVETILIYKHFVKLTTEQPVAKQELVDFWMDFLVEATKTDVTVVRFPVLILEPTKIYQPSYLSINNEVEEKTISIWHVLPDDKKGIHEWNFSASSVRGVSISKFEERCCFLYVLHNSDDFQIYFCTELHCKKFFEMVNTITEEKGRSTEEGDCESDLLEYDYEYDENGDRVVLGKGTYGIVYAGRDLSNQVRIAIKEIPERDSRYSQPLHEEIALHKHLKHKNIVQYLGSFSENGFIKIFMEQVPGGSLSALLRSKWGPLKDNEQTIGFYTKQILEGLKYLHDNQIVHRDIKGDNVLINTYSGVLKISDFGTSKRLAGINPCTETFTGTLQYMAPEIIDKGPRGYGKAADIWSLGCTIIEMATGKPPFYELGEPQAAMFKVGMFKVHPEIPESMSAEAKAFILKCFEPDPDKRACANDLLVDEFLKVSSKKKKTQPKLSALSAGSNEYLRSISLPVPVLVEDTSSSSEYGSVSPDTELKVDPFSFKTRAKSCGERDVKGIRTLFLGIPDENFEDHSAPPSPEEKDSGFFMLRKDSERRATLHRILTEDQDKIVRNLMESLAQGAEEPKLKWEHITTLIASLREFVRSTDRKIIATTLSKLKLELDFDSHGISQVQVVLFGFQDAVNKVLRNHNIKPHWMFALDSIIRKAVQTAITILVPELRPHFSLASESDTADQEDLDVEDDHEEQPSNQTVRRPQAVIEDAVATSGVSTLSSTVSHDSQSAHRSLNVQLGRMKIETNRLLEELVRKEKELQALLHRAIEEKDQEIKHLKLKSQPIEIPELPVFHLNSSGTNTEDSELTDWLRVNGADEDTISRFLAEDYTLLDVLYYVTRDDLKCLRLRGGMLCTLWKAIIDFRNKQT

| Structure (SMILES) | ΔTm [°C] |
| --- | --- |
| CC[C@H](CO)Nc1nc(NCc2ccccc2)c2ncn(C(C)C)c2n1 [SELICICLIB] | 1 |
| CC(C)c1nn(-c2c(Cl)cccc2Cl)c2nc(Cc3ccc(OCCO)cc3)[nH]c(=O)c12 | 1 |
| CN(c1cccnc1)c1cc2c(Nc3ccc(F)c(Cl)c3)c(C#N)cnc2cn1 | 1.4 |

molecular target: Serine/threonine-protein kinase 38 (Homo sapiens) (UniProt Q15208)
Sequence (Q15208 2-465 limits assumed): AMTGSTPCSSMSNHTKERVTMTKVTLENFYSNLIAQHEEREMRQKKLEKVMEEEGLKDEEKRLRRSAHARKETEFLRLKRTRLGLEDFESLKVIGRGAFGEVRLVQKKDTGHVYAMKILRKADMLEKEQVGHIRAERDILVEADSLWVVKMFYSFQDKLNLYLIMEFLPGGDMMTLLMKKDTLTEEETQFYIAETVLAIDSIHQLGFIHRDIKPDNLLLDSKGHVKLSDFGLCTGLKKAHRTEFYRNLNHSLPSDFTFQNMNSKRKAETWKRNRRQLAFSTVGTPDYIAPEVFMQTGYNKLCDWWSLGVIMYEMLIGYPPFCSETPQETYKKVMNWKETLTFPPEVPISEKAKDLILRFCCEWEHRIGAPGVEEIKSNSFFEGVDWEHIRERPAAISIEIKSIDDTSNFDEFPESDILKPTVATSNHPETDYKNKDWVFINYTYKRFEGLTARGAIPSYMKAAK

| Structure (SMILES) | ΔTm [°C] |
| --- | --- |
| CC[C@H](CO)Nc1nc(NCc2ccccc2)c2ncn(C(C)C)c2n1 [SELICICLIB] | 0.3 |
| CC(C)c1nn(-c2c(Cl)cccc2Cl)c2nc(Cc3ccc(OCCO)cc3)[nH]c(=O)c12 | 0.3 |
| CN(c1cccnc1)c1cc2c(Nc3ccc(F)c(Cl)c3)c(C#N)cnc2cn1 | 0.3 |
